Measured values from patent US20240368120A1 (Terns Pharmaceuticals, Inc., priority 2023, published 2024).

Legend:
human GLP-1R receptor = target: T1, human GLP-1R receptor (Homo sapiens, UniProt P43220); assay: GLP-1R low expression cell assay (cAMP TR-FRET, CHO-K1_hGLP-1Rlow_clone10 cells); assay type: cell-based; conditions: for EC50: cAMP TR-FRET, 30 min at 25° C.; for Emax: maximum activation relative to control GLP-1 peptide agonist
T1 construct: expressed in transfected cells
Summary of the method: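 CHO-K1 cells stably expressing low surface human GLP-1R (clone10), 1,000 cells/well, exposed to 10-point 3-fold compound dilutions for 30 min at 25 °C. cAMP measured by TR-FRET (Eu-cAMP tracer/ULight-anti-cAMP, 15 min). EC50 from Hill fit of duplicate percent activation relative to a parallel GLP-1 control agonist.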

[1] = Rat pharmacokinetics, oral dosing; assay type: in vivo, Sprague-Dawley rats; conditions: male, Sprague-Dawley, oral dosing at 3 mg/kg, plasma; for half-life: read-out: Rat T1/2
Method: Intravenous dosing: Compounds were formulated at 1.0 mg/mL in a solution comprising 5% polyethylene glycol 400 and 95% (12% (w/v) sulfobutyl-β-cyclodextrin in water) (v/v). Formulated compounds were sterile filtered through a 0.22 micron filter before dosing. Compounds were administered to male, 7-11-week-old Sprague-Dawley rats by jugular vein cannula infusion over 30 minutes at a dose of 1 mg/kg. Oral dosing: Compounds were formulated at 1.0 mg/mL in a solution comprising 5% polyethylene glycol 400 and 95% (12% (w/v) sulfobutyl-β-cyclodextrin in water) (v/v). Formulated compounds were administered to male, 7-11 week old Sprague-Dawley rats by oral gavage at a dose of 10 mg/kg or 3 mg/kg.
Sample collection: Blood collections of about 0.2 mL per time point were performed from jugular vein or other suitable site of each animal, into pre-chilled commercial EDTA-K2 tubes and placed on wet ice until centrifugation. Blood samples were processed for plasma by centrifugation at approximately 4° C., 3,200 g for 10 min. Plasma was collected and transferred into pre-labeled 96 well plate or polypropylene tubes, quick frozen over dry ice and kept at −60° C. or lower until
Data analysis: Plasma concentration versus time data was plotted in graph and analyzed by non-compartmental approaches using the Phoenix WinNonlin 6.3 software program. Related PK parameters were calculated according to dosing route, e.g., CL, Vdss and C0 for intravenous administration, Cmax, Tmax or % F for extravascular administration, and T1/2, AUC(0-t), AUC(0-inf), MRT(0-t), MRT(0-inf) for all routes.

T1 sequence (P43220 24-463): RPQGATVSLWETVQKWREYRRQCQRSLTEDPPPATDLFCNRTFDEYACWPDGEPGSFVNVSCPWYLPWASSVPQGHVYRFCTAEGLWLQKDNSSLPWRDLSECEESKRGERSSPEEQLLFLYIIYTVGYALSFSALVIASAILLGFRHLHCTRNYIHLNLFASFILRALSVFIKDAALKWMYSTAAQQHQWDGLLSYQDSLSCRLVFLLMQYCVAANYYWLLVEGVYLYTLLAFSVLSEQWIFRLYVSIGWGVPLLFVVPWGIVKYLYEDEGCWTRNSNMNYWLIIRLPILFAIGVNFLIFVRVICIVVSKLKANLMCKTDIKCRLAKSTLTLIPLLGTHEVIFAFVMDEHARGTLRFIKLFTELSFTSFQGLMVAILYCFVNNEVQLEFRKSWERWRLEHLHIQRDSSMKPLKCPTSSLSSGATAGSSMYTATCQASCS

Row | SMILES | EC50 (human GLP-1R receptor) [nM] | Emax (human GLP-1R receptor) [%] | AUC [1] [ng·h/mL] | Cmax [1] [ng/mL] | half-life [1] [min] | bioavailability [1] [%]
1 | C[C@]1(c2ccc(Cl)cn2)Oc2cccc(C3CCN(Cc4nc5c(OC6CC6)cc(C(=O)O)cc5n4Cc4cncs4)CC3)c2O1 [Compound 6, (S)-2-((4-(2-(5-chloropyridin-2-yl)-2-methylbenzo[d][1,3]dioxol-4-yl)piperidin-1-yl)methyl)-4-cyclopropoxy-1-(thiazol-5-ylmethyl)-1H-benzo[d]imidazole-6-carboxylic acid] | < 10 | > 85 | < 500 | < 500 | 90 to 150 | 25 to 50
2 | [2H]C([2H])(C)Oc1cc(C(=O)O)cc2c1nc(CN1CCC(c3cccc(OCc4ccc(C#N)cc4F)n3)CC1)n2C [Compound 295, 2-((4-(6-((4-Cyano-2-fluorobenzyl)oxy)pyridin-2-yl)piperidin-1-yl)methyl)-4-(ethoxy-1,1-d2)-1-methyl-1H-benzo[d]imidazole-6-carboxylic acid] | < 10 | > 85 | 500 to 2500 | 500 to 1000 | 90 to 150 | 25 to 50
3 | CC(F)(F)c1cc(C(=O)O)cc2c1nc(CN1CCC(c3cccc4c3O[C@](C)(c3ccc(Cl)cn3)O4)CC1)n2C[C@@H]1CCO1 [Compound 71, 2-((4-((R)-2-(5-Chloropyridin-2-yl)-2-methylbenzo[d][1,3]dioxol-4-yl)piperidin-1-yl)methyl)-4-(1,1-difluoroethyl)-1-(((S)-oxetan-2-yl)methyl)-1H-benzo[d]imidazole-6-carboxylic acid] | 10 to 100 | > 85 | 500 to 2500 | 500 to 1000 | < 90 | 25 to 50
4 | C[C@]1(c2ccc(Cl)cn2)Oc2cccc(C3CCN(Cc4nc5c(O)cc(C(=O)O)cc5n4Cc4cncs4)CC3)c2O1 [Compound 90, (S)-2-((4-(2-(5-chloropyridin-2-yl)-2-methylbenzo[d][1,3]dioxol-4-yl)piperidin-1-yl)methyl)-4-hydroxy-1-(thiazol-5-ylmethyl)-1H-benzo[d]imidazole-6-carboxylic acid] | < 10 | > 85 | < 500 | < 500 | 90 to 150 | < 25
5 | COc1cc(C(=O)O)c(F)c2c1nc(CN1CCC(c3cccc(OCc4ccc(C#N)cc4F)n3)CC1)n2C [Compound 303, 2-((4-(6-((4-Cyano-2-fluorobenzyl)oxy)pyridin-2-yl)piperidin-1-yl)methyl)-7-fluoro-4-methoxy-1-methyl-1H-benzo[d]imidazole-6-carboxylic acid] | 10 to 100 | > 85 | 500 to 2500 | 500 to 1000 | ≥ 150 | < 25
6 | O=C(O)c1cc(OC(F)F)c2nc(CN3CCC(c4cccc(OCc5ccc(Cl)cc5F)n4)CC3)n(CF)c2c1 [Compound 208, 2-((4-(6-((4-Chloro-2-fluorobenzyl)oxy)pyridin-2-yl)piperidin-1-yl)methyl)-4-(difluoromethoxy)-1-(fluoromethyl)-1H-benzo[d]imidazole-6-carboxylic acid] | 10 to 100 | > 85 |  |  |  | 
7 | Cn1c(CN2CCC(c3cccc4c3O[C@H](c3ccc(C#N)cc3F)CO4)CC2)nc2c(OC(F)F)cc(C(=O)O)cc21 [Compound 124, (R)-2-((4-(3-(4-Cyano-2-fluorophenyl)-2,3-dihydrobenzo[b][1,4]dioxin-5-yl)piperidin-1-yl)methyl)-4-(difluoromethoxy)-1-methyl-1H-benzo[d]imidazole-6-carboxylic acid] | > 1000 | 25 to 50 |  |  |  | 
8 | CO[C@H]1C[C@H](Oc2cc(C(=O)O)cc3c2nc(CN2CCC(c4cccc(OCc5ccc(Cl)cc5F)n4)CC2)n3C)C1 [Compound 325, 2-((4-(6-((4-Chloro-2-fluorobenzyl)oxy)pyridin-2-yl)piperidin-1-yl)methyl)-4-((1r,3r)-3-methoxycyclobutoxy)-1-methyl-1H-benzo[d]imidazole-6-carboxylic acid] | 100 to 1000 | > 85 |  |  |  | 

Now from value to molecule:

Row | EC50 (human GLP-1R receptor) [nM] | Emax (human GLP-1R receptor) [%] | AUC [1] [ng·h/mL] | Cmax [1] [ng/mL] | half-life [1] [min] | bioavailability [1] [%] | SMILES
9 | < 10 | > 85 | 2500 to 10000 | 1000 to 2000 | 90 to 150 | 50 to 85 | COc1cc(C(=O)O)cc2c1nc(CN1CCC(c3cccc(OCc4ccc(C#N)cc4F)n3)CC1)n2C [Compound 308, 2-((4-(6-((4-Cyano-2-fluorobenzyl)oxy)pyridin-2-yl)piperidin-1-yl)methyl)-4-methoxy-1-methyl-1H-benzo[d]imidazole-6-carboxylic acid]
10 |  | > 85 | < 500 | < 500 | ≥ 150 | < 25 | COCCOc1cc(C(=O)O)cc2c1nc(CN1CCC(c3cccc4c3O[C@@](C)(c3ccc(Cl)cn3)O4)CC1)n2C [Compound 309, (S)-2-((4-(2-(5-Chloropyridin-2-yl)-2-methylbenzo[d][1,3]dioxol-4-yl)piperidin-1-yl)methyl)-4-(2-methoxyethoxy)-1-methyl-1H-benzo[d]imidazole-6-carboxylic acid]
11 | < 10 | > 85 | 2500 to 10000 | 2000 to 5000 | 90 to 150 | 50 to 85 | COc1cc(C(=O)O)cc2c1nc(Cc1cc(F)c(-c3cccc(OCc4ccc(C#N)cc4F)n3)cc1F)n2C [Compound 304, 2-(4-(6-((4-Cyano-2-fluorobenzyl)oxy)pyridin-2-yl)-2,5-difluorobenzyl)-4-methoxy-1-methyl-1H-benzo[d]imidazole-6-carboxylic acid]
12 | > 1000 | 50 to 85 | < 500 | < 500 | ≥ 150 | < 25 | Cn1c(CN2CCC(c3cccc4c3O[C@@H](c3ccc(C#N)cc3F)CO4)CC2)nc2c(OCCF)cc(C(=O)O)cc21 [Compound 294, (S)-2-((4-(3-(4-Cyano-2-fluorophenyl)-2,3-dihydrobenzo[b][1,4]dioxin-5-yl)piperidin-1-yl)methyl)-4-(2-fluoroethoxy)-1-methyl-1H-benzo[d]imidazole-6-carboxylic acid]
13 | 100 to 1000 | 50 to 85 |  |  |  |  | COc1cc(C(=O)O)cc2c1nc(CN1CCC(c3cccc4c3OC[C@@H](c3ccc(Cl)cc3F)O4)CC1)n2C [Compound 271, (R)-2-((4-(2-(4-Chloro-2-fluorophenyl)-2,3-dihydrobenzo[b][1,4]dioxin-5-yl)piperidin-1-yl)methyl)-4-methoxy-1-methyl-1H-benzo[d]imidazole-6-carboxylic acid]
14 | < 10 | > 85 |  |  |  |  | [2H]C([2H])([2H])Oc1cc(C(=O)O)cc2c1nc(CN1CCC(c3cccc(OCc4ccc(C#N)cc4F)n3)CC1)n2C[C@@H]1CCO1 [Compound 108, (S)-2-((4-(6-((4-Cyano-2-fluorobenzyl)oxy)pyridin-2-yl)piperidin-1-yl)methyl)-4-(methoxy-d3)-1-(oxetan-2-ylmethyl)-1H-benzo[d]imidazole-6-carboxylic acid]
15 |  | > 85 |  |  |  |  | CCOc1cc(C(=O)O)cc2c1nc(CN1CCC(c3cccc(OCc4ccc(Cl)cc4F)n3)CC1)n2C [Compound 358, 2-((4-(6-((4-Chloro-2-fluorobenzyl)oxy)pyridin-2-yl)piperidin-1-yl)methyl)-4-ethoxy-1-methyl-1H-benzo[d]imidazole-6-carboxylic acid]
16 | 100 to 1000 | > 85 |  |  |  |  | Cn1c(CN2CCC(c3cccc(OCc4ccccc4Cl)n3)CC2)nc2c(OC(F)F)cc(C(=O)O)cc21 [Compound 248, 2-((4-(6-((2-Chlorobenzyl)oxy)pyridin-2-yl)piperidin-1-yl)methyl)-4-(difluoromethoxy)-1-methyl-1H-benzo[d]imidazole-6-carboxylic acid]
17 | 10 to 100 | > 85 |  |  |  |  | CCOc1cc(C(=O)O)cc2c1nc(CN1CCC(c3cccc4c3O[C@H](c3ccc(Cl)cc3F)CO4)CC1)n2C [Compound 265, (R)-2-((4-(3-(4-chloro-2-fluorophenyl)-2,3-dihydrobenzo[b][1,4]dioxin-5-yl)piperidin-1-yl)methyl)-4-ethoxy-1-methyl-1H-benzo[d]imidazole-6-carboxylic acid]
18 | 10 to 100 | > 85 |  |  |  |  | COc1ccc(COc2cccc(C3CCN(Cc4nc5c(OC(F)F)cc(C(=O)O)cc5n4C)CC3)n2)c(F)c1 [Compound 228, 4-(Difluoromethoxy)-2-((4-(6-((2-fluoro-4-methoxybenzyl)oxy)pyridin-2-yl)piperidin-1-yl)methyl)-1-methyl-1H-benzo[d]imidazole-6-carboxylic acid]
